Measurements from the NIST ThermoML archive (doi:10.1016/j.jct.2016.10.035).
± gives the expanded uncertainty stated by the source.

Details: 298.15 K; 100 kPa; Crystal; X-ray diffraction

- mass density: 3155 ± 12 kg/m3
Compound: O=P([O-])([O-])[O-].O=P([O-])([O-])[O-].O=P([O-])([O-])[O-].[Ca+2].[Ca+2].[Ca+2].[Ca+2].[Ca+2].[OH-] [hydroxyapatite]
